Data on four compounds can be found in patent US8951988B2, “Azidothymidine quinoline conjugated compound, preparation method therefor and application thereof in anti-hepatoma therapy” (Huazhong University of Science and Technology, priority 2012, dated 2015).

Where “and” joins values, the source holds several entries; their conditions need not be identical. Identical values can stand only once.

For data set [1], the system named is normal human liver cells HL-7702. The data set is described as follows: MTT cell viability assay, HL-7702. The settings on record: MTT after 72 hours. The procedure:
(§1) Cell culture: cancer cell lines HepG2 and Hep3B are obtained from ATCC (VA, USA), Human liver cells HL-7702 and murine liver cancer cells H22 are obtained from Shanghai Institute of Life Science Cell Culture Center (Shanghai, China). All the cells are maintained in high glucose DMEM or RPMI-1640 medium (Invitrogen, GA, USA) supplemented with 10% heat-inactivated fetal bovine serum (FBS), 25 mM HEPES, 2 mM L-glutamine, 0.1 mM nonessential amino acids, 1.0 mM sodium pyruvate, 50 U/mL penicillin, and 50 ug/ml streptomycin at 37° C. and 5% CO2.
(§2) Methods of cell viability assay: liver cells are seeded on 96-well plates, AZT-QX, Zidovudine, quinoline piperazine derivatives and doxorubicin are added in respectively, the concentration thereof are from 1 nM to […]. After 72 hours, an MTT assay is carried out to determine the cell viability [See method in: Zhou, et al. Chem. Res. Toxicol. 2008, 21, 732-738.].
(§3) Selective biological activity of AZT-QX is assessed using cell viability assays MTT on human liver carcinoma cells with hepatitis B Hep3B, hepatoblastoma cell line HepG2 and normal human liver cells HL-7702 (FIG. 3).
(§4) FIG. 3 illustrates determined cell viability of Hep3B hepatoma cells with hepatitis B, a HepG2 hepatoblastoma cell line and HL-7702 normal […] treated with AZT-QX (FIG. 3a), doxorubicin (FIG. 3b), Pip-QX (FIG. 3c), and Zidovudine (FIG. 3d).
A general note: Tetrazolium assays rely on reduction of a dye to a coloured formazan, in cell work by metabolically active cells.

Data set [2] concerns H22 liver cancer cells. The data set is described as follows: subcutaneous H22 liver tumor model in mice, tumor size and volume. It is filed as in vivo, BALB/c mice. As to conditions: for volume: individual mice, 50 μM 100 μl on day 1 and day 7. The procedure:
The liver cancer tumor models are established by subcutaneously injecting H22 hepatoma cells. […] The further statistical analysis (see FIG. 6) confirms that as compared with the other two, AZT-QX has greater effectiveness p<0.01, and at a low dosage (0.13 mg/kg at a time, twice).
FIG. 6 illustrates the average growth of tumors in mice after administration and tumors in mice after 12 days, in which FIG. 6a is a figure of the average growth of tumors in mice; FIG. 6b is contrast of tumors in mice 12 days after different drug treatments. The control is a blank contrast, AZT is Zidovudine, AZT-QX is application of the compound of the invention.

For data set [3], the system named is normal liver cells HL-7702. The experiment in a line: anti-BrdU fluorescence assay of nucleic acid synthesis, normal liver cells. It is filed as cell-based, human. The text has this:
(§5) The anti-BrdU fluorescence assay is used to determine the nucleic acid synthesis in cells (FIG. 4).
(§6) FIG. 4 illustrates fluorescence images of an anti-BrdU assay of nucleic acid synthesis in cells. As shown in the figure, the green fluorescence illustrates the nucleic acid synthesis in cells, and the blue fluorescence illustrates the nuclear staining.

Data set [4] is described as follows: body weight of mice in the H22 liver tumor model. As to conditions: individual mice, 50 μM 100 μl on day 1 and day 7, in g (unit assumed).
Excerpt: Animal groups and drug administration: mice are divided into 3 groups once tumors reach an average size of 8.8×8.8 mm.
Data set [5] relates to human liver carcinoma cells with hepatitis B Hep3B. The experiment in a line: MTT cell viability assay, Hep3B. It is filed as cell-based. The method, then:
as §1, §2, §3, §4

For data set [6], the system named is hepatoma cells with hepatitis B. The experiment in a line: anti-BrdU fluorescence assay of nucleic acid synthesis, hepatoma cells. It is filed as cell-based.
Excerpt: as §5, §6

The subject of data set [7] is hepatoblastoma cell line HepG2. The data set is described as follows: MTT cell viability assay, HepG2. It is filed as cell-based, human. The settings on record: MTT after 72 hours. The procedure:
as §1, §2, §3, §4

Consider `Cc1cn([C@H]2C[C@H](n3cc(CNC(=O)CCCCCOc4ccc5c(c4)-c4nc6ccccc6nc4[C@@H]4C(C)(C)CCC[C@]54C)nn3)[C@@H](CO)O2)c(=O)[nH]c1=O` [AZT-QX, N-((1-(2-(hydroxymethyl)-5-(5-methyl-2,4-dioxo-3,4-dihydro-pyrimidin-1(2H)-yl)-tetrahydrofuran-3-yl)-1H-1,2,3-triazol-4-yl)methyl)-6-(4b,8,8-trimethyl-4-b,5,6,7,8,8a-hexahydrodibenzo[a,c]phenazin-2-yloxy)hexanamide], for which, in data set [1] (at 200 μM), the “toxicity to human normal liver cells HL-7702 (in words)” value is reported as “no significant toxicity”. Besides, the volume in data set [2] (Day 1, in mm³ (unit assumed)) is 256 and 288 and 500; in data set [2] (Day 2), 364.5 and 288 (2×); in data set [2] (Day 3, in mm³ (unit assumed)), 500 and 405 and 288; in data set [2] (Day 4, in mm³ (unit assumed)), 500 and 364.5 and 405; in data set [2] (Day 5, in mm³ (unit assumed)), 665.5 and 364.5 and 445.5; in data set [2] (Day 6, in mm³ (unit assumed)), 936 and 405 and 550. For the same compound, the volume is 907.5 and 500 and 550 in data set [2] (Day 7, in mm³ (unit assumed)); 1080 and 500 and 600 in data set [2] (Day 8, in mm³ (unit assumed)); 1080 and 665.5 and 666 in data set [2] (Day 9, in mm³ (unit assumed)); 1080 and 786.5 and 726 in data set [2] (Day 10, in mm³ (unit assumed)); 1267.5 and 847 and 726 in data set [2] (Day 11, in mm³ (unit assumed)); 1267.5 and 1008 and 726 in data set [2] (Day 12, in mm³ (unit assumed)). The “average tumor growth after 12 days (in words)” value in data set [2] (injected intratumorally on day 1 and day 7, 100 μL) is “inhibits tumor growth”. For the same compound, in data set [3], the “nucleic acid synthesis in normal liver cells HL-7702” value is recorded as “does not affect the nucleic acid synthesis”. The BW in data set [4] (Day 1) was 30.7 and 35.4 and 26.9; in data set [4] (Day 2) it was 31.7 and 36.3 and 27.7; in data set [4] (Day 3) it was 32 and 36 and 27.6; in data set [4] (Day 4), 32.5 and 37.1 and 28; in data set [4] (Day 5) it was 32.4 and 32.9 and 28.2; in data set [4] (Day 6) it was 32.2 and 37 and 28.1. The BW is 32 and 36.3 and 27.9 in data set [4] (Day 7); 33.2 and 36.6 and 28.7 in data set [4] (Day 8); 33.5 and 36.6 and 28.8 in data set [4] (Day 9); 34.1 and 36.7 and 28.7 in data set [4] (Day 10); 34.5 and 36.8 and 29 in data set [4] (Day 11); 35.8 and 37.9 and 29.5 in data set [4] (Day 12). Also, the “activity in combination with methotrexate” value in data set [5] (Hep3B cells, methotrexate added) is “additive effect”. In addition, the Hep3B cells killed in data set [5] (at 20 μM, MTT after 72 hours) is on record as 80%. Besides, the “activity after selective inhibition of thymidine kinase by siRNA” value in data set [5] (hepatoma cells with hepatitis B, thymidine kinase siRNA) is “decreased”. In addition, the “nucleic acid synthesis in hepatoma cells (green fluorescence)” value (shortened to “nucleic acid synthesis in hepatoma cells”) in data set [6] was “effectively inhibits green fluorescence in hepatoma cells”.

With `Cc1cn([C@H]2C[C@H](N=[N+]=[N-])[C@@H](CO)O2)c(=O)[nH]c1=O` [Zidovudine], the “toxicity to normal liver cells HL-7702 (in words)” value in data set [1] is listed as “no significant toxicity”. The volume in data set [2] (Day 1, in mm³ (unit assumed)) is 220.5 and 364.5 and 405; in data set [2] (Day 2, in mm³ (unit assumed)), 245 and 550 and 405; in data set [2] (Day 3, in mm³ (unit assumed)), 320 and 665.5 and 600; in data set [2] (Day 4, in mm³ (unit assumed)), 650 and 726 and 786.5; in data set [2] (Day 5, in mm³ (unit assumed)) it was 486 and 936 and 786.5; in data set [2] (Day 6, in mm³ (unit assumed)), 1028.5 and 1183 and 1470. Besides, the volume in data set [2] (Day 7, in mm³ (unit assumed)) is 1149.5 and 1687.5 and 1568; in data set [2] (Day 8, in mm³ (unit assumed)), 1368 and 3402 and 2560; in data set [2] (Day 9, in mm³ (unit assumed)) it was 1368 and 3610 and 3240; in data set [2] (Day 10, in mm³ (unit assumed)) it was 1368 and 3790.5 and 4851; in data set [2] (Day 11, in mm³ (unit assumed)), 1440 and 4400 and 5071.5; in data set [2] (Day 12, in mm³ (unit assumed)) it was 1960 and 5292 and 4851. For the same compound, the BW in data set [4] (Day 1) is 26.9 and 29.9 and 31.9; in data set [4] (Day 2), 26.8 and 31.5 and 32; in data set [4] (Day 3), 26.8 and 31.5 and 31.8; in data set [4] (Day 4), 27.2 and 31.4 and 33; in data set [4] (Day 5) it was 27 and 31.3 and 32.7; in data set [4] (Day 6), 27.4 and 31.3 and 33.8. For the same compound, the BW in data set [4] (Day 7) is 26.9 and 31.5 and 33.5; in data set [4] (Day 8), 26.6 and 32.7 and 34.1; in data set [4] (Day 9), 27 and 33.3 and 34.2; in data set [4] (Day 10) it was 27 and 34.5 and 34.4; in data set [4] (Day 11), 27.7 and 36.6 and 35.1; in data set [4] (Day 12) it was 28.8 and 37.4 and 35.9. For the same compound, the “toxicity to / killing of HepG2 cells (in words)” value in data set [7] is “no significant toxicity”. The “toxicity to / killing of Hep3B cells (in words)” value in data set [5] (MTT after 72 hours) is listed as “no significant toxicity”. In addition, the “nucleic acid synthesis in hepatoma cells” value in data set [6] is “no effect in inhibiting nucleic acid synthesis”.

On to `CN1CCN(C(=O)Oc2ccc3c(c2)-c2nc4ccccc4nc2[C@@H]2C(C)(C)CCC[C@]32C)CC1` [pip-QX], for which the “toxicity to normal liver cells HL-7702 (in words)” value in data set [1] was “killed all the liver cell lines non-selectively”. Moreover, the “toxicity to / killing of HepG2 cells (in words)” value in data set [7] is given as “killed all the liver cell lines non-selectively”. Moreover, the “toxicity to / killing of Hep3B cells (in words)” value in data set [5] (MTT after 72 hours) was “killed all the liver cell lines non-selectively”. In addition, the “nucleic acid synthesis in hepatoma cells” value in data set [6] is given as “effect similar to AZT-QX”.

For `COc1cccc2c1C(=O)c1c(O)c3c(c(O)c1C2=O)C[C@@](O)(C(=O)CO)C[C@@H]3O[C@H]1C[C@H](N)[C@H](O)[C@H](C)O1` [doxorubicin], in data set [1], the “toxicity to normal liver cells HL-7702 (in words)” value is “more severe than to hepatoma cells”.
